Test results: ChEMBL document CHEMBL3627608, “Crystal structures of human RIP2 kinase catalytic domain complexed with ATP-competitive inhibitors: Foundations for understanding inhibitor selectivity” (Bioorg Med Chem, 2015)

Legend:
[1] = molecular target: T1, Ephrin type-B receptor 4 (Homo sapiens) (UniProt P54760); assay: Inhibition of EPHB4 (unknown origin) at 10 uM after 120 mins P33 radiolabeled kinase activity assay
T1 sequence (whole entry): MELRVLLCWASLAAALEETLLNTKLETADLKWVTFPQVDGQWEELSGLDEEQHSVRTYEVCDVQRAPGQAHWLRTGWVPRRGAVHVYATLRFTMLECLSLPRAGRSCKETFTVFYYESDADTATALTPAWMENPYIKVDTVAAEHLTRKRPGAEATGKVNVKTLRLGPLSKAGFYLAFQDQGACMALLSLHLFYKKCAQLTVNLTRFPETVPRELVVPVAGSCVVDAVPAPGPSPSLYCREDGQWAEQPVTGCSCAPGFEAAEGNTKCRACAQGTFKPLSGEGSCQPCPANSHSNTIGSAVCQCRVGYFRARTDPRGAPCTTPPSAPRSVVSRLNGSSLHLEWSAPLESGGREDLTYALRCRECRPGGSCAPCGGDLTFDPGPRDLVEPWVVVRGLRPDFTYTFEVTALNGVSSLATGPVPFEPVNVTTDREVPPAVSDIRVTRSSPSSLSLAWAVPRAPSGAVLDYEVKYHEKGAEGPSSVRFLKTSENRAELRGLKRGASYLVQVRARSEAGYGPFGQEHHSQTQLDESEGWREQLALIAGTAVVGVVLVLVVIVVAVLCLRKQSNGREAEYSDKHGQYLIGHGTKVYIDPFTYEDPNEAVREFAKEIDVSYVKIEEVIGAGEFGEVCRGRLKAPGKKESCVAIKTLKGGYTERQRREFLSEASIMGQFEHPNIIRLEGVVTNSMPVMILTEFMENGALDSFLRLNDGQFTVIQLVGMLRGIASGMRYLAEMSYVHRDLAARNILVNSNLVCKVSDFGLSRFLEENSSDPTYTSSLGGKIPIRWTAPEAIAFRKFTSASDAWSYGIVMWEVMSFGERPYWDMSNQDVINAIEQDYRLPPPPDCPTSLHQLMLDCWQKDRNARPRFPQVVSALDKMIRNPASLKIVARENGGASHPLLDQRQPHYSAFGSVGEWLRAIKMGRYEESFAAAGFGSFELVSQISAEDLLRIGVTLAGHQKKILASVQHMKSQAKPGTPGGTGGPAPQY

[2] = molecular target: STE20/SPS1-related proline-alanine-rich protein kinase (Homo sapiens) (UniProt Q9UEW8); assay: Inhibition of STK39 (unknown origin) at 10 uM after 120 mins P33 radiolabeled kinase activity assay
[3] = molecular target: T2, Serine/threonine-protein kinase TAO3 (Homo sapiens) (UniProt Q9H2K8); assay: Inhibition of TAOK3 (unknown origin) at 10 uM after 120 mins P33 radiolabeled kinase activity assay
T2 sequence (whole entry): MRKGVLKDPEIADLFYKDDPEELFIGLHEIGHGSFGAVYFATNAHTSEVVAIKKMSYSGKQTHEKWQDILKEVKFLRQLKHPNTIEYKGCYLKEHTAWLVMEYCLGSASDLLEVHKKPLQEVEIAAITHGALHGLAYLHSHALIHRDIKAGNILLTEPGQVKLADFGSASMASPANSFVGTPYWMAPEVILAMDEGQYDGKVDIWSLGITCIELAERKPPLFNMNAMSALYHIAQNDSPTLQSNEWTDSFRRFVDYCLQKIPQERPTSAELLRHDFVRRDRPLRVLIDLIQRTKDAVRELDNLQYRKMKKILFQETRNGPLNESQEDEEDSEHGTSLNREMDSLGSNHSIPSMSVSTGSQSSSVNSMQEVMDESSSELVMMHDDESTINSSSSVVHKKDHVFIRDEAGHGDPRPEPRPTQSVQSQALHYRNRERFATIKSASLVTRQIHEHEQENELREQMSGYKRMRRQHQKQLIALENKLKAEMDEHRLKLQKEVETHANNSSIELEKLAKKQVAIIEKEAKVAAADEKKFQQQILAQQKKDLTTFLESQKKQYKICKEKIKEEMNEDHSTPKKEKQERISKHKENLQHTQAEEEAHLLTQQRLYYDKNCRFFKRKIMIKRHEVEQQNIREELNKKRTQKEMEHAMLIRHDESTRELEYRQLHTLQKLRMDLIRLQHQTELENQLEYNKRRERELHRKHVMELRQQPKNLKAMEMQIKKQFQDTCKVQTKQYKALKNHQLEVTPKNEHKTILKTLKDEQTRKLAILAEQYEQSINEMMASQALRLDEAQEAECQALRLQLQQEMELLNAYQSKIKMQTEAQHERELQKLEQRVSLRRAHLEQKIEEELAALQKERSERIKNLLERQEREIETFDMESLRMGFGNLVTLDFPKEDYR

[4] = molecular target: Calcium/calmodulin-dependent protein kinase type 1B (Homo sapiens) (UniProt Q6P2M8); assay: Inhibition of CAMK1beta (unknown origin) at 10 uM after 120 mins P33 radiolabeled kinase activity assay
[5] = molecular target: Ephrin type-A receptor 7 (Homo sapiens) (UniProt Q15375); assay: Inhibition of EPHA7 (unknown origin) at 10 uM after 120 mins P33 radiolabeled kinase activity assay
[6] = molecular target: High affinity nerve growth factor receptor (Homo sapiens) (UniProt P04629); assay: Inhibition of TRKA (unknown origin) at 10 uM after 120 mins P33 radiolabeled kinase activity assay
[7] = molecular target: Tyrosine-protein kinase CSK (Homo sapiens) (UniProt P41240); assay: Inhibition of CSK (unknown origin) at 10 uM after 120 mins P33 radiolabeled kinase activity assay
[8] = molecular target: MAP kinase-interacting serine/threonine-protein kinase 2 (Homo sapiens) (UniProt Q9HBH9); assay: Inhibition of MNK2 (unknown origin) at 10 uM after 120 mins P33 radiolabeled kinase activity assay
[9] = molecular target: T3, Serine/threonine-protein kinase Sgk1 (Homo sapiens) (UniProt O00141); assay: Inhibition of SGK1 (unknown origin) at 10 uM after 120 mins P33 radiolabeled kinase activity assay
T3 sequence (whole entry): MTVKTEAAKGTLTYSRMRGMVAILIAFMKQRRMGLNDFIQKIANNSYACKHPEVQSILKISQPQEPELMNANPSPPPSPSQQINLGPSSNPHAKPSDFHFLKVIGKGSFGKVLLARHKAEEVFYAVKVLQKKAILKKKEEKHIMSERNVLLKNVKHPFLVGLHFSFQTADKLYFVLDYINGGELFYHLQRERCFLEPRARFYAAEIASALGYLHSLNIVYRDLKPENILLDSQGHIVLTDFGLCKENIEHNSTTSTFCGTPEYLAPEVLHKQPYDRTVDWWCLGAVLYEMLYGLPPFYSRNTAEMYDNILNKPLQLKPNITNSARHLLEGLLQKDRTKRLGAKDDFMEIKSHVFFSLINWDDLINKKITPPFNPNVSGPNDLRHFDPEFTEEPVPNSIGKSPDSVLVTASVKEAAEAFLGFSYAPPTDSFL

[10] = molecular target: Fibroblast growth factor receptor 3 (Homo sapiens) (UniProt P22607); assay: Inhibition of FGFR3 (unknown origin) at 10 uM after 120 mins P33 radiolabeled kinase activity assay
[11] = molecular target: Tyrosine-protein kinase Fer (Homo sapiens) (UniProt P16591); assay: Inhibition of FER (unknown origin) at 10 uM after 120 mins P33 radiolabeled kinase activity assay
Sequence of Tyrosine-protein kinase Fer (Homo sapiens) (P16591 whole entry, looked up): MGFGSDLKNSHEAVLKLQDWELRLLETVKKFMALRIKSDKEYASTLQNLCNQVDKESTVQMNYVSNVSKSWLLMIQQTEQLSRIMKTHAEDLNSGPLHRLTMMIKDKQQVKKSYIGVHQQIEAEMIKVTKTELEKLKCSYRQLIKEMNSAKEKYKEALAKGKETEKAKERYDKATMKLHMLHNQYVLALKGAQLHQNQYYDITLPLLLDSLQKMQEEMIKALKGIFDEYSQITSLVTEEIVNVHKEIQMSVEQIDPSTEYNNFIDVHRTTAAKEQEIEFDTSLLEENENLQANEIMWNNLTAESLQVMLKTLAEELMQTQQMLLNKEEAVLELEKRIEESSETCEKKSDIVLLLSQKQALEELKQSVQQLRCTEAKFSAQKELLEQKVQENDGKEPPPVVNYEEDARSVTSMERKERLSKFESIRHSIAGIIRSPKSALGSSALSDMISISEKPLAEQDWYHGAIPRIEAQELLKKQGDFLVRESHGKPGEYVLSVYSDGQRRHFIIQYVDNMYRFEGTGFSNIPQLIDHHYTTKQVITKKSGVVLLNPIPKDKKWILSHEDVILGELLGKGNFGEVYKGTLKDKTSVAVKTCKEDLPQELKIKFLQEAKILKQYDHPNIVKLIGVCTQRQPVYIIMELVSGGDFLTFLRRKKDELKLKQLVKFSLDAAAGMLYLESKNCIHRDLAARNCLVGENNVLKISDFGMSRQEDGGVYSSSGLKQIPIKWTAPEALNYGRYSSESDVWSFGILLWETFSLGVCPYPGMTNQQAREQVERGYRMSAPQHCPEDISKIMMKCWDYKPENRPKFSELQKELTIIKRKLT

Sequence of MAP kinase-interacting serine/threonine-protein kinase 2 (Homo sapiens) (Q9HBH9 whole entry, looked up): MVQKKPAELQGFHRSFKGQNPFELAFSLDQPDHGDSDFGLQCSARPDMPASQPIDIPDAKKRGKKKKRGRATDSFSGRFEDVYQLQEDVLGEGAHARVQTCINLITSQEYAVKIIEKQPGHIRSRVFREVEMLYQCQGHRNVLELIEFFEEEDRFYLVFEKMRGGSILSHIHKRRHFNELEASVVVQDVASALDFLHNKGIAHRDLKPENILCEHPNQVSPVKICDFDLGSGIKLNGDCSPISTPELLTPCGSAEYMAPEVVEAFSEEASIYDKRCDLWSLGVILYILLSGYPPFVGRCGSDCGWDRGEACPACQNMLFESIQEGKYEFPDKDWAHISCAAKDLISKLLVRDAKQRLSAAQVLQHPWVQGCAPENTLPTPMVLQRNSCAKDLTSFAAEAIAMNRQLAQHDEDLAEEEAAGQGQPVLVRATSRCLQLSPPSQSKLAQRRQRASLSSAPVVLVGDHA
Sequence of Tyrosine-protein kinase CSK (Homo sapiens) (P41240 2-450 limits assumed): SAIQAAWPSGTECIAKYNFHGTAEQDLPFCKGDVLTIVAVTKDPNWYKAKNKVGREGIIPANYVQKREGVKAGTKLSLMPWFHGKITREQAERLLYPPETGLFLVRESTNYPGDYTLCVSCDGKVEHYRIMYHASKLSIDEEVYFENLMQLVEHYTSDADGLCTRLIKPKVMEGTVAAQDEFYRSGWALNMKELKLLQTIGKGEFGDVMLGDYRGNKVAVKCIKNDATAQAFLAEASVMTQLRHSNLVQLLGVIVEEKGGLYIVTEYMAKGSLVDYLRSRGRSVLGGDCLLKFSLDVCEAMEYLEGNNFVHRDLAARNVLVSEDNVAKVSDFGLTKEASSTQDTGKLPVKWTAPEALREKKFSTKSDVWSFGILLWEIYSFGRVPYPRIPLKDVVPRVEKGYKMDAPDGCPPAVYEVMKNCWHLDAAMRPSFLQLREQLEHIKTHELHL
Sequence of Ephrin type-A receptor 7 (Homo sapiens) (Q15375 28-998 limits assumed): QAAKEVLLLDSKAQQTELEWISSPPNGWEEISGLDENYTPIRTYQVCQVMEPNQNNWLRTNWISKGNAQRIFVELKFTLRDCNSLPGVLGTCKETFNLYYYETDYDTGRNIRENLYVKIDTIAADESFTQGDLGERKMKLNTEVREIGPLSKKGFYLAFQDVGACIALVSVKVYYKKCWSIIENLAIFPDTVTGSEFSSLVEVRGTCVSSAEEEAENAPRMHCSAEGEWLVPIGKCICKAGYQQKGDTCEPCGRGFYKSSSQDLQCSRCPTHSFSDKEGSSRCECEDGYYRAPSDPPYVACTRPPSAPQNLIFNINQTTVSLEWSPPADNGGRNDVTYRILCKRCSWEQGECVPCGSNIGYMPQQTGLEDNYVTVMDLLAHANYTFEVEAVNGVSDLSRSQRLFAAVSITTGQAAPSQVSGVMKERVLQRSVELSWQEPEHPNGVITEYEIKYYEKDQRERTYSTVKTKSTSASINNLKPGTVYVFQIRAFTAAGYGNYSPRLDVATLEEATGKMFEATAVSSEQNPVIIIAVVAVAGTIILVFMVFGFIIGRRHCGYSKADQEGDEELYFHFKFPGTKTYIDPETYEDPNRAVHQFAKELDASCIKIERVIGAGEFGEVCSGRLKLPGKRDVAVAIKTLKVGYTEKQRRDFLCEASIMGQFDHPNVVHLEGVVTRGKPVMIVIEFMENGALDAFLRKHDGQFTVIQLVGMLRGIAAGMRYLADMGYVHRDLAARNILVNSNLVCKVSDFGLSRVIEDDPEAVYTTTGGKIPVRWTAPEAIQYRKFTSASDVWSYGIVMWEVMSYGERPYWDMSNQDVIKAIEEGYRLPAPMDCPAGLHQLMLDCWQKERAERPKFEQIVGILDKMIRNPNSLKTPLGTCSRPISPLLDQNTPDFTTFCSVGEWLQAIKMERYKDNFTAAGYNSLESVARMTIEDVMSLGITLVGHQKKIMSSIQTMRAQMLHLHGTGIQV
Sequence of High affinity nerve growth factor receptor (Homo sapiens) (P04629 33-796 limits assumed): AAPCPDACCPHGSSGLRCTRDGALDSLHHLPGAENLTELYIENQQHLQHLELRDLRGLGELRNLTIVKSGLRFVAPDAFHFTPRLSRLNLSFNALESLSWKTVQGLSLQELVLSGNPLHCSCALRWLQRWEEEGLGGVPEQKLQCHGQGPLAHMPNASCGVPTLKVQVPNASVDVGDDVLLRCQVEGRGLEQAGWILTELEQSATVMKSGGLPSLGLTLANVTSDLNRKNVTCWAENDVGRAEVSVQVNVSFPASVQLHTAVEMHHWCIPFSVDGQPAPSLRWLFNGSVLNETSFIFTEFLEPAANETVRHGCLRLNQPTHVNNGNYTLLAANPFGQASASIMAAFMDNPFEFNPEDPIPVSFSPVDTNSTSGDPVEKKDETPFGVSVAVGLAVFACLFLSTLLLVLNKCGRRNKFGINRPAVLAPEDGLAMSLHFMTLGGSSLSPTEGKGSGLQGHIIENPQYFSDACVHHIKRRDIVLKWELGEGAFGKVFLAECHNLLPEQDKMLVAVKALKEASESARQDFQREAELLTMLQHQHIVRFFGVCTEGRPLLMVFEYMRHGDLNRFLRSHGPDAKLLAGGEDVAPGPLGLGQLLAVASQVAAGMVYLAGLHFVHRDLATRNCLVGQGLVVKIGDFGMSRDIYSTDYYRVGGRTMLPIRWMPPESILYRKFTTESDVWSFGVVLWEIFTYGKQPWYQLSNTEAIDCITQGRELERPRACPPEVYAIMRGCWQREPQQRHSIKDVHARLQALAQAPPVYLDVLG
Sequence of Fibroblast growth factor receptor 3 (Homo sapiens) (P22607 23-806 limits assumed): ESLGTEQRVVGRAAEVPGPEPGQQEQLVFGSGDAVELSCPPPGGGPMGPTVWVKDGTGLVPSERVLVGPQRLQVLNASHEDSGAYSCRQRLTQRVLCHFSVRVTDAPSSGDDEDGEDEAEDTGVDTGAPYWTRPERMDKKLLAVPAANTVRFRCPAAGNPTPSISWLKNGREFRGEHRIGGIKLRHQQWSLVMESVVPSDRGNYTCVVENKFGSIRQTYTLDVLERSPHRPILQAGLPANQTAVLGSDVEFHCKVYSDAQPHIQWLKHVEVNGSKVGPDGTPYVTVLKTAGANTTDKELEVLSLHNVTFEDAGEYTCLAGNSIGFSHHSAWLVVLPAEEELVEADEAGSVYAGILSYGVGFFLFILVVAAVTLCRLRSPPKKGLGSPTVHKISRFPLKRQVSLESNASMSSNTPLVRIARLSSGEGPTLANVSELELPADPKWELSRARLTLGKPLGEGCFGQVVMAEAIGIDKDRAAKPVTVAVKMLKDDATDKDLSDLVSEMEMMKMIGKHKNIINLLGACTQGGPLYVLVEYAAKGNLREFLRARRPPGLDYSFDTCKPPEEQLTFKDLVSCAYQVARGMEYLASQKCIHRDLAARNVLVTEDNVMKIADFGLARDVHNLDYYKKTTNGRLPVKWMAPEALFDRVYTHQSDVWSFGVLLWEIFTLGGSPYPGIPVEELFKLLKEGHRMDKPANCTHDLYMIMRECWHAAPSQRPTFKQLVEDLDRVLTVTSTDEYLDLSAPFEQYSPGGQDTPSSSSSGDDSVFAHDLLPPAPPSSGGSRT
Sequence of Calcium/calmodulin-dependent protein kinase type 1B (Homo sapiens) (Q6P2M8 whole entry): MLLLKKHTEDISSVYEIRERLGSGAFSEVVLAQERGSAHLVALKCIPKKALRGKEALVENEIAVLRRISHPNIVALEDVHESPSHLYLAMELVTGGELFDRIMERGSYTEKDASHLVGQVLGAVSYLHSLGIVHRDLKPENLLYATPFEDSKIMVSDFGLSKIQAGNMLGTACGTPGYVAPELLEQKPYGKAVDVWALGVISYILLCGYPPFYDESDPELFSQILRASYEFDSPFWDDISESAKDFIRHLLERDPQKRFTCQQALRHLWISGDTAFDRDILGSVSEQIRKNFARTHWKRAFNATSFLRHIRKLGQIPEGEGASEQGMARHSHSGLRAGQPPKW

Compound | inhibition [1] | inhibition [2] | inhibition [3] | inhibition [4] | inhibition [5] | inhibition [6] | inhibition [7] | inhibition [8] | inhibition [9] | inhibition [10] | inhibition [11]
COCCNC(=O)c1ccc2c(c1)nc(-c1cnc(-c3ccc(Cl)cc3)[nH]1)n2CCOC | 29.3% | 6.77% | -0.26% | 2.47% | 18.8% | 5.11% | 15.6% | 2.19% | 10.1% | 8.78% | 0.68%
CS(=O)(=O)c1cccc(Nc2nccc(-c3sc(N4CCOCC4)nc3-c3cccc(NS(=O)(=O)c4c(F)cccc4F)c3)n2)c1 | 93.8% | 28.6% | 26.7% | 46.8% | 47.5% | 39.8% | 100% | 81.5% | 30.1% | 51.2% | 65.2%
CC(C)(C)c1cc(NC(=O)Nc2ccc(Oc3ccncc3)cc2)no1 | 96% | 52.4% | 51% | 9.84% | 96.5% | 97.2% | 78.4% | 99.2% | 1.68% | 72.3% | 19.9%
